Laboratory results: publication PMC4691848 (Nature, 2012)

Legend:
[1] = test system: Flag-JMJD3-transfected HeLa cells; assay: nuclear H3K27me3 immunostaining; type: cell-based
[2] = ChIP analysis at the TNFA locus in LPS-stimulated macrophages; type: cell-based, human
[3] = cytokine expression by PCR array in LPS-activated macrophages; type: cell-based, human; details: 30 μM, LPS 2 h, n = 4 donors
[4] = TNF-α production by LPS-activated macrophages; type: cell-based, human
[5] = test system: macrophages derived from patients with rheumatoid arthritis; assay: TNF-α production by macrophages derived from patients with rheumatoid arthritis; type: cell-based, human
[6] = intracellular compound quantification in macrophage lysates; type: in vitro ADME, human
[7] = test system: panel of 60 unrelated proteins, including histone deacetylases; assay: off-target panel
[8] = test system: 100 protein kinases; assay: kinase competition-binding assay; details: 30 μM
[9] = test system: panel of demethylases of the JMJ family; assay: JMJ selectivity panel; details: other than JMJD3 and UTX
[10] = target: Flag-tagged UTX from transiently transfected HEK-293 cells (Homo sapiens, UniProt O15550); assay: chemoproteomics affinity capture with immobilized GSK-J3, western blotting; type: binding; details: 100 μM free compound, HEK-293 lysate
Chain of Flag-tagged UTX from transiently transfected HEK-293 cells (O15550 whole entry): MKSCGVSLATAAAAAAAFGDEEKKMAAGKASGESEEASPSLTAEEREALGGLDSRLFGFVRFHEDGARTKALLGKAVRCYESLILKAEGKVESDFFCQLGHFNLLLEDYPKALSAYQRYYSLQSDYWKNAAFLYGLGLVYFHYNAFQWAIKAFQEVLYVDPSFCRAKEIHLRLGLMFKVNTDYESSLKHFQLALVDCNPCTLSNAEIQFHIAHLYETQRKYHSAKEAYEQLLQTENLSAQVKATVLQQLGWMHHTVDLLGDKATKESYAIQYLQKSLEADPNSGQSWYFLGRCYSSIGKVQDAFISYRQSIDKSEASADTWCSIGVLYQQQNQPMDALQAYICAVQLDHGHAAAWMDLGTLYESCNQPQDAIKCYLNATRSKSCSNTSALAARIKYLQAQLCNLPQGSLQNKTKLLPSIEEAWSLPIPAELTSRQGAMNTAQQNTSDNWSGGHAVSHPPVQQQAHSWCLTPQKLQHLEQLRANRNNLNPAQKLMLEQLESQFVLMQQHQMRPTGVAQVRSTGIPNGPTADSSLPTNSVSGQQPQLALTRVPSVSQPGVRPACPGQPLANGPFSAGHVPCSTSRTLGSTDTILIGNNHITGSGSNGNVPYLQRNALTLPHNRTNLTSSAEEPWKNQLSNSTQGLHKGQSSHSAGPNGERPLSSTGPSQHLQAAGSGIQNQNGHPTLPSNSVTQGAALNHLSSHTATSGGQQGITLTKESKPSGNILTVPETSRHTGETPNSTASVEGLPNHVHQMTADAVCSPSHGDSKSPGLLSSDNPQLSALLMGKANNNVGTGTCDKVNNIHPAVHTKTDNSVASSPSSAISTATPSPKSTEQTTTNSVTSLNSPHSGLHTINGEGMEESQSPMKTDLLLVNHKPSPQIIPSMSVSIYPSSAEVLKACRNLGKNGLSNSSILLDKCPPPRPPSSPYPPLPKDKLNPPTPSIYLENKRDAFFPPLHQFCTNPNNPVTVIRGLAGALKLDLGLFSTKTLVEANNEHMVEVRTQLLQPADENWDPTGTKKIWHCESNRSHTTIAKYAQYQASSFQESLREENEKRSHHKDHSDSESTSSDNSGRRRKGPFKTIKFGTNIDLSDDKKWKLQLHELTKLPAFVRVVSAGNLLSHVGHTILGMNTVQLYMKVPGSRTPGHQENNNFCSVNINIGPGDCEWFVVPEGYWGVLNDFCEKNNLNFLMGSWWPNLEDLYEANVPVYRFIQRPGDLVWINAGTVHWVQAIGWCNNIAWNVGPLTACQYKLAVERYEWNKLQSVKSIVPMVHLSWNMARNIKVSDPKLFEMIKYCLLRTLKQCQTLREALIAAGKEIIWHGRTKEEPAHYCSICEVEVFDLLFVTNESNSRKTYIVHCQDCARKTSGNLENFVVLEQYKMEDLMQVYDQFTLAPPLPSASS

SMILES	nuclear H3K27me3 staining in Flag-JMJD3-transfected HeLa cells ([1]; 25 μM)	total nuclear H3K27me3 levels in untransfected cells ([1]; untransfected cells)	H3K27 methylation upstream of the TNFA TSS [2]	LPS-induced loss of H3K27me3 associated with the TNFA TSS (ChIP) ([2]; 30 μM, LPS 1 h, n = 8 donors)	recruitment of RNA polymerase II to the TNFA TSS (ChIP) ([2]; 30 μM, LPS 1 h, n = 8 donors)	LPS-driven cytokines with significantly reduced expression (PCR array) [3]	levels of LPS-induced JMJD3 or of LPS-independent UTX and EZH2 [4]	TNF-α production after siRNA knockdown of either JMJD3 or UTX alone ([4]; 30 μM, LPS 1 h)	cellular toxicity ([4]; conditions of the TNF-α assay)	IC50 ([4]; read-out: IC50 for TNF-α blockade, LPS, 6 h, n = 5 donors) [µM]	production of TNF-α by macrophages from patients with rheumatoid arthritis [5]	hydrolysis by macrophage esterases [6]	effect on TNF-α protein production ([4]; LPS, 6 h)	off-target activity against a panel of 60 unrelated proteins [7]	inhibition of 100 protein kinases [8]	activity against a panel of demethylases of the JMJ family [9]	competition of capture of Flag-tagged UTX by immobilized GSK-J3 [10]	cellular permeability [6]
CCOC(=O)CCNc1cc(N2CCc3ccccc3CC2)nc(-c2ccccn2)n1 [GSK-J4]	preserved nuclear H3K27me3 staining	increased total nuclear H3K27me3 levels	Neither GSK-J4 nor GSK-J5 had an effect	prevented the LPS-induced loss of H3K27me3	blocked the recruitment of RNA polymerase II	16 of 34	neither GSK-J4 nor GSK-J5 directly affected	still able to inhibit TNF-α production	No interference from cellular toxicity was observed	9	blocked the production of TNF-α	rapidly hydrolysed						
CCOC(=O)CCNc1cc(N2CCc3ccccc3CC2)nc(-c2cccnc2)n1 [GSK-J5]			Neither GSK-J4 nor GSK-J5 had an effect				neither GSK-J4 nor GSK-J5 directly affected					rapidly hydrolysed	no effect					
O=C(O)CCNc1cc(N2CCc3ccccc3CC2)nc(-c2ccccn2)n1 [GSK-J1]														negligible off-target activity	did not significantly inhibit	inactive	competitively inhibited	restricts cellular permeability
